“Also recorded” adds a separate entry of the source.
What was measured:
HFD-fed mice = experiment: Topical MC903 in HFD-fed WT C57BL/6 mice (weight gain, eWAT, GTT, HOMA-IR, liver histology); assay type: in vivo, mouse
Description: WT C57BL/6 mice were fed a normal chow (NC) or 40% high fat diet (HFD) for 12 weeks. The mice were topically treated with either vehicle (EtOH) or MC903 (2 nmol/ear) on both ears Monday, Wednesday, and Friday on odd weeks. (FIG. 1A) Mice were weighed weekly and % change from baseline is plotted as mean±SEM. (FIG. 1B) The mice were euthanized on Week 12 and the epididymal fat pads were weighed. (FIG. 1C, FIG. 1D) Glucose tolerance test was performed on Week 12 by injection of glucose and subsequent measurements of blood glucose levels. HOMA-IR analysis was performed after an overnight fast at Week 12. *, **, and *** indicate statistical significance of p<0.05, p<0.01, and p<0.001, respectively by Student t-test or ANOVA.
WT C57BL/6 mice were fed a normal chow (NC) or 40% high fat diet (HFD) for 12 weeks. The mice were topically treated with either vehicle (EtOH) or MC903 (2 nmol/ear) on both ears Monday, Wednesday, and Friday on odd weeks. Shown are representative histological images of the liver on Week 12.
Wildtype C57BL/6 mice were fed a normal chow (NC) or 40% high fat diet (HFD) for 12 weeks. The mice were topically treated with either vehicle (EtOH) or MC903 (2 nmol/ear) on both ears Monday, Wednesday, and Friday on odd weeks. (A) Mice were weighed weekly and % change from baseline is plotted as mean±SEM. (B) The mice were euthanized on Week 12 and the epididymal fat pads were weighed. (C, D) Glucose tolerance test (GTT) was performed on Week 12 by injection of glucose and subsequent measurements of blood glucose levels. Homeostatic model assessment-insulin resistance (HOMA-IR) analysis was performed after an overnight fast at Week 12. *, **, and *** indicate statistical significance of p<0.05, p<0.01, and p<0.001, respectively by Student t-test or ANOVA.
C57BL/6 mice were fed a normal chow (NC) or 40% high fat diet (HFD) for 12 weeks. The mice were topically treated with either vehicle (EtOH) or MC903 (2 nmol/ear) on both ears Monday, Wednesday, and Friday on odd weeks. Shown are representative histological images of the liver on Week 12.

HFD-fed TSLP-R KO mice = experiment: Topical MC903 in HFD-fed TSLP-R KO mice; assay type: in vivo, mouse; conditions: HFD-fed TSLP-R-deficient mice, topical MC903 2 nmol/ear, 12 weeks
Description: (§1) TSLP-R KO mice were fed a normal chow (NC) or 40% high fat diet (HFD) for 12 weeks. The mice were topically treated with either vehicle (EtOH) or MC903 (2 nmol/ear) on both ears Monday, Wednesday, and Friday on odd weeks. Mice were weighed on the indicated time points and plotted as mean±SEM. Glucose tolerance test was performed on Week 12 by injection of glucose and subsequent measurements of blood glucose levels. AUC analysis is performed on the GTT curves. * indicates statistical significance of p<0.05 by Student t-test.
as §1, with “TSLP-R knock out (KO) mice were” for “TSLP-R KO mice were”, “tolerance test (GTT) was performed” for “tolerance test was performed”

human individual = experiment: Topical MC903 application to arm or leg of human individuals (remote effects on sebum, dry skin, scalp hair, dry eye); assay type: in vivo
Description: MC903 was applied topically to the right arm of an individual daily. Sebum measurements were obtained by cleaning the forehead with ethanol wipe, resting for 15 minutes, and placing sebutape on the forehead for 2 minutes. Black dots on the blue and white background of the tape indicates the presence of sebum at each day post treatment.
MC903 was applied topically to the right arm of an individual daily. Photographs of the right hand before and after 3 or 5 days post treatment is shown. The individual was treated for 14 days total with no need of hand cream at least 9 weeks even after treatment was discontinued. In certain embodiments, secretion of sebum lasts after cessation of treatment.
MC903 was applied topically to the left arm daily of an individual for 14 days (1st treatment). Treatment was stopped for 4 weeks and restarted for an additional 2 weeks (2nd treatment) on the right arm daily. Photographs of the scalp before, 2 weeks after 1st treatment, 11 days after 2nd treatment, and 8 weeks after 2nd treatment are shown.[…].
MC903 was applied topically to the left arm daily of an individual and the right leg another individual for 14 days (1st treatment). The presence of dry eye symptoms was subjectively evaluated in the two individuals before and after treatment. The response is plotted in a bar graph.

[1] = HFD-fed mice, Week 12, vs vehicle

SMILES: C=C1/C(=C\C=C2/CCC[C@]3(C)[C@@H]([C@H](C)/C=C/[C@@H](O)C4CC4)CC[C@@H]23)C[C@@H](O)C[C@@H]1O [MC903, 26,27-cyclo-22-ene-1α,24S-dihydroxyvitamin D3]
- weight gain (HFD-fed mice; HFD-fed WT C57BL/6 mice, topical MC903 2 nmol/ear, 12 weeks, vs vehicle (EtOH)): significantly reduced weight gain; also recorded: significantly less weight gain; also recorded: prevention weight gain
- epididymal white adipose tissue (eWAT) weight (HFD-fed mice; [1]): significantly decreased
- fat deposition in the liver (histology) (HFD-fed mice; [1]): markedly reduced; also recorded: appeared very similar to the tissue of mice fed with normal chow; also recorded: prevention of HFD-induced hepatosteatosis
- metabolic parameters (GTT and HOMA-IR) (HFD-fed mice; [1]): improved metabolic parameters; also recorded: improvement in metabolic parameters
- weight gain and metabolic parameters (HFD-fed TSLP-R KO mice): does not prevent weight gain or improve metabolic parameters
- time with no need of hand cream after treatment was discontinued (human individual; human individual treated for 14 days total): at least 9 weeks
- scalp hair growth (human individual; human individual, 2 cycles of 2-week topical MC903 on the arm): substantial recovery of hair growth; also recorded: remotely promotes scalp hair growth
- sebum on the forehead (sebutape) (human individual; one human individual, MC903 topically on the arm daily): increasing amounts of sebum on the forehead; also recorded: remotely increases sebum secretion
- eczematous dry skin of a hand (human individual; one human individual, MC903 topically on the right arm daily): marked improvement; also recorded: remotely cures dry skin of the hand
- dry eye symptoms (subjective) (human individual; two human individuals, MC903 on arm or leg daily for 14 days): improvement in dry eye symptoms; also recorded: remotely improves dry eye symptoms
